What is called IC50 is the point on the concentration scale where inhibition reaches its midpoint.

Molecules are shown by their SMILES. Like-named read-outs stand apart in the source and are kept apart here. Bounds are passed on as bounds.

Series [1] has as its target T1, CB1 receptor (Homo sapiens, UniProt P21554).
T1 construct: expressed in transfected cells; host or cells: HEK293 cells (ATCC), calcium phosphate transfection
Description: cAMP accumulation in HEK293 cells transfected with AC5, D1AR, CB1R. Format: cell-based. How it is done:
HEK293 cells were obtained from American Type Culture Collection (Manassas, Va.). Cells were cultured in 225 mL flasks containing 39 mL of MEM containing 10% fetal bovine serum, penicillin (50 μg/mL), streptomycin (50 μg/mL), and neomycin (100 μg/mL). The flasks were maintained in a humidified atmosphere of 95% air and 5% CO2 at about 37° C. Transfection was performed by the method of DNA precipitation with calcium phosphate 1 day after HEK 293 cells were transferred to small flasks (75 mL) at the density of approximately 60 to 80% confluence. Plasmid DNA containing AC5 or AC7 cDNA (11.5 μg), plasmid DNA carrying the human D1A dopamine receptor cDNA (3 μg) and CB1 receptor cDNA (3 μg), and pCMS-EGFP (1 μg) were used for each small flask, which also contained 13 mL of the culture medium. The amount of DNA per flask was adjusted to a total of 26 μg using vector DNA. Transfection efficiency was routinely monitored by observing the expression of enhanced green fluorescent protein (GFP) by an epifluorescence microscope equipped with a filter set (excitation, 480/40 nm; emission, 535/50 nm) and a dichroic mirror (T89002bs; Chroma Technology, Rockingham, Vt.). After transfection, cells were harvested and transferred into 24-well culture plates. The transfected cells were cultured for 1 to 2 days before the cAMP accumulation experiments were carried out.
After labeling and intracellular ATP pool with 3.0 μCi/mL of [2,8-^3H]adenine, cells were incubated in DMEM (0.5 mL/well) without phenol red, buffered to pH 7.1 with 20 mM of 4-(2-hydroxyethyl)-1-piperazineethanesulfonic acid (HEPES) for 30 minutes at 37° C.
To determine the effect of the DCUK-OEt or other compounds on the function of the CB1 receptor, the cells were treated with the phosphodiesterase inhibitor, IBMX (500 μM), for 10 minutes at 37° C., followed by the addition of D1A receptor agonist, dopamine (DA) (1 μM), in the presence of a known CB1 agonist or agonist, plus a CB1 antagonist for 5 minutes. The following agonist and antagonist were used: CB1 receptor agonist, ACEA (10 μM); CB1 receptor antagonist, AM251 (10 μM). In additional reactions, the addition of DA was accompanied by addition of DCUK-OEt (10 μM) or DCUK-OEt together with AM251 (10 μM). In a final set of reactions DCUK-OEt was added with ACEA (10 μM), to assess whether DCUK-OEt acted like a CB1 receptor antagonist. The reactions were terminated by adding 50 μL of 100% (w/v) tricholoroacetic acid. ATP and cAMP were separated through Dowex 50 and neutral alumina columns as is known in the art, and quantified by liquid scintillation counting. [α-^32P]ATP and 8-[^14C]cAMP were added as internal standards to monitor the recovery of ATP and cAMP through column chromatography. Conversion of [^3H] ATP into [^3H]cAMP was calculated as follows: [^3H]cAMP (%)=[^3H]cAMP (cpm)/([^3H]ATP (cpm)+[^3H]cAMP (cpm))·100. [^3H]cAMP (%) values obtained from cells which underwent only the 10-minute IBMX incubation period before the addition of trichloroacetic acid, were used as blanks and these values were subtracted from the values obtained from cells which underwent the 1-minute incubation period with DA in the presence or absence of other agonists/antagonists. Each condition was assayed in triplicate and the whole experimental procedure was repeated 4 times. The ratio of cAMP accumulation was calculated for all treatment groups versus DA treatment group (100%) and the values were averaged among the four batches of experiments.

Series [2] deals with voltage sensitive sodium channel (neurotoxin receptor Site 2). Nature of the series: [3H]BTX binding assay. The settings on record: rat cortical synaptosomes.
The target of series [3] is rat brain type IIA Na+ channel (Nav1.2) (Rattus norvegicus, UniProt P04775). Nature of the series: Whole-cell patch clamp recordings of Na+ currents in CNaIIA-1 cells. Format: cell-based. The following applies: fit of shift of inactivation curve.
rat brain type IIA Na+ channel (Nav1.2), sequence (P04775 whole entry): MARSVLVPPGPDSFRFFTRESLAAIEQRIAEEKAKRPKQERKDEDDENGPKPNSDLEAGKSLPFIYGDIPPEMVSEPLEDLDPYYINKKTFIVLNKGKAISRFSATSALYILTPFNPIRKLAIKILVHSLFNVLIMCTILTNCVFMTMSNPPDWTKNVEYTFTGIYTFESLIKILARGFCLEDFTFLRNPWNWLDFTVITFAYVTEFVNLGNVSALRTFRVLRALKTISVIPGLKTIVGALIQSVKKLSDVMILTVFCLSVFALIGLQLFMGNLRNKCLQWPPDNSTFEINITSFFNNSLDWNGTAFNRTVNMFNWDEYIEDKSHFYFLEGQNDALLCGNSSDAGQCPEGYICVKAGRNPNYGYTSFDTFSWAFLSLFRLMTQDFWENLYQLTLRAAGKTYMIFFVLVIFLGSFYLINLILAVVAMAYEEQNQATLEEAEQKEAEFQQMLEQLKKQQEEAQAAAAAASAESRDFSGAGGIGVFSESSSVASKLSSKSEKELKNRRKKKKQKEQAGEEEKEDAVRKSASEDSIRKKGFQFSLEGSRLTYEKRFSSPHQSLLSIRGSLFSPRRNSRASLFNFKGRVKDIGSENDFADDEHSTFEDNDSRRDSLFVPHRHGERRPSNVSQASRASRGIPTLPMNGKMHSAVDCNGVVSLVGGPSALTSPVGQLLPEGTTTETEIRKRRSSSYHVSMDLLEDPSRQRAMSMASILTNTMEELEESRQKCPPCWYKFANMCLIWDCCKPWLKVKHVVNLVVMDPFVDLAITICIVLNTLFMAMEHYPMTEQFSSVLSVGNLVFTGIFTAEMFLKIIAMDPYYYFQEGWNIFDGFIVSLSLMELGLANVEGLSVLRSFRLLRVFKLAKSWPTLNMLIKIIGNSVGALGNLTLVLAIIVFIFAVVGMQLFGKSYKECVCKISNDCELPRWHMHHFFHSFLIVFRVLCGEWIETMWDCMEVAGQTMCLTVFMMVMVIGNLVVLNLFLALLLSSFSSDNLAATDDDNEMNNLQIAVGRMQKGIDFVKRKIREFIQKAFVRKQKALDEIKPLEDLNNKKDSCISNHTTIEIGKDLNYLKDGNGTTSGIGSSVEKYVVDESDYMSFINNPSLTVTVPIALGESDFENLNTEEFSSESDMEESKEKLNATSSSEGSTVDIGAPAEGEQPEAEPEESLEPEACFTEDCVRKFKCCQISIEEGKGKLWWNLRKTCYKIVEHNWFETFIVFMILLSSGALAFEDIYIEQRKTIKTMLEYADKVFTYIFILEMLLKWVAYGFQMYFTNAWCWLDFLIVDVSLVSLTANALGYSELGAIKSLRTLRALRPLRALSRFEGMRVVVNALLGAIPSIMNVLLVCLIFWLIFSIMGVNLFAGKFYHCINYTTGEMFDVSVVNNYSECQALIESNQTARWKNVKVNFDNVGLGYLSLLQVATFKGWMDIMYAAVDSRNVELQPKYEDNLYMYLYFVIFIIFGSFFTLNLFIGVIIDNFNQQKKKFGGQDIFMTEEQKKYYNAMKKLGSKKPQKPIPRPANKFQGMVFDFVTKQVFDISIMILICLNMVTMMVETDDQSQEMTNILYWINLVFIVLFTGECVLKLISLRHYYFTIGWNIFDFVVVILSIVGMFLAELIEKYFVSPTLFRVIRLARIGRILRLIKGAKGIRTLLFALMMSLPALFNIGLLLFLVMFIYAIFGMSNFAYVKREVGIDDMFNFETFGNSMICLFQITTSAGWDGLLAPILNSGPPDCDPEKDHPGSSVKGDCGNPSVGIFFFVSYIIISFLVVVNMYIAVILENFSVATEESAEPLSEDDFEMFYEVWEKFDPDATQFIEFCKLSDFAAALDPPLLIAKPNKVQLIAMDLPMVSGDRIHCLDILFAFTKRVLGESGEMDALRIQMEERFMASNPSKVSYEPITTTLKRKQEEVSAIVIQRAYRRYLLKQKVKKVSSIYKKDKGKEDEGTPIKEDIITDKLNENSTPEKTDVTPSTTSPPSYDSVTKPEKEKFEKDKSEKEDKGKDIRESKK
In series [4] the test system is primary cultures of rat cerebellar granule cells. Description: Glutamate-induced excitotoxic cell death. It is filed as cell-based. The settings on record: 100 micromolar glutamate. How it is done: Glutamate Excitotoxicity. Primary cultures of cerebellar granule cells were prepared from 7-day-old Sprague-Dawley rats. The cultures were maintained in plates containing 24 wells (volume of 1 mL/well). Culture density was about 1.5×10^6 cells/mL. Cell viability was assayed after 7 or 8 days in culture by the production of fluorescein, formed from fluorescein diacetate by esterases present in living cells. Cells were washed with magnesium ion-free Locke's buffer, and then exposed to 100 μM glutamate alone, glutamate and 10 μM glycine, or each of these conditions in the presence of 100 μM DCUKA or 100 μM DCUK-OMe at 25° C. for 30 minutes. DCUKA and DCUK-OMe were added in 2-μl aliquots to yield a final DMSO concentration of 0.2%. […] Fluorescence of each well was measured on a Perkin-Elmer HTS7000 plate reader (excitation 485 nm; emission 535 nm; 16 measurements per well) with optimal gain settings. For each 24-well plate, the fluorescence of one control culture well (i.e., not exposed to glutamate) was automatically set to the highest fluorescence value, and fluorescence values were determined in all other wells with the same gain settings. Fluorescence measurements in all 24 wells were normalized to the control culture and expressed as a percentage of this value. Data are expressed as percentage of cell death (100-percentage of control). […]

Series [5] is described as follows: Solubility limit in aqueous assay buffers. Format: physicochemical. The following applies: aqueous assay buffers (incubation or bath solutions), aqueous buffer, kinetic from dmso stock, DMSO 0.2 to 1%, read-out: concentrations that could not be tested due to limited solubility in aqueous buffers. How it is done: Drugs. For all in vitro assays, stock solutions of DCUKA or DCUK-OMe were prepared fresh daily in dimethylsulfoxide (DMSO) then diluted into the incubation or bath solutions with sonication to the desired concentrations for experiments. Due to their limited solubility in aqueous buffers, DCUKA concentrations >300 μM and DCUK-OMe concentrations >100 μM could not be tested. In those assays where high ionic strength buffers were used, i.e., [^3H]batrachiotoxin (BTX) binding in depolarized synaptosomes, concentrations >50 μM could not be tested. The final concentration of DMSO in the assays ranged from 0.2 to 1%. In all assays, drug effects were compared with effects measured in the presence of the identical concentration of DMSO without drug.

T1 sequence (P21554 whole entry): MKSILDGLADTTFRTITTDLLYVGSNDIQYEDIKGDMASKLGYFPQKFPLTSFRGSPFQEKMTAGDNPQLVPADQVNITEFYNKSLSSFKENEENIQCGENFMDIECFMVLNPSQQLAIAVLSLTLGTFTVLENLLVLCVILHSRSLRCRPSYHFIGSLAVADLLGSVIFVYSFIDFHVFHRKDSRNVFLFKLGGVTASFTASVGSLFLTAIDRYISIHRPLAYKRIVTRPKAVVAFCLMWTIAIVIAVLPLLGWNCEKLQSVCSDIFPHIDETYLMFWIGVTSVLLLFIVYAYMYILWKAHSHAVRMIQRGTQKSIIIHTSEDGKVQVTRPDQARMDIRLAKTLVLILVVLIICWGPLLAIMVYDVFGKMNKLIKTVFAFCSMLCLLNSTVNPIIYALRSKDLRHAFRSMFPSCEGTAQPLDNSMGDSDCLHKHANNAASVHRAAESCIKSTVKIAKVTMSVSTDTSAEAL

Consider `CCOC(=O)c1cc(NC(=O)N(c2ccccc2)c2ccccc2)c2c(Cl)cc(Cl)cc2n1` [DCUK-OEt, N,N-diphenyl-4-ureido-5,7-dichloro-2-carboxy quinoline ethyl ester], for which the “effect on DA stimulated cAMP production with AM251 added” value in series [1] (AM251 10 μM) is “reversed by AM251”. Also, the “reversal of the effects of ACEA” value in series [1] (added with ACEA 10 μM) is given as “did not reverse the effects of ACEA”. Also, the “effect on DA stimulated cAMP production” value in series [1] (dopamine 1 μM, compound 10 μM) is recorded as “reduced DA stimulated cAMP production”.
As for `O=C(O)c1cc(NC(=O)N(c2ccccc2)c2ccccc2)c2c(Cl)cc(Cl)cc2n1` [DCUKA, N,N-diphenyl-4-ureido-5,7-dichloro-2-carboxyquinoline], the IC50 was found to be 30 µM in series [2] (depolarizing conditions (135 mM KCl), read-out: IC50 [3H]BTX binding under depolarizing conditions (value in parentheses)) and 76 µM in series [2] (none = no displacement at 100 μM, read-out: IC50 [3H]BTX binding). Moreover, the Ki in series [3] (read-out: KI, dissociation constant for inactivated states) amounted to 9.8 µM. Moreover, the Kd in series [3] (read-out: KR, dissociation constant for the resting state) turned out to be 244 µM. Moreover, the “protection from glutamate-induced damage” value in series [4] (100 μM compound) is “completely protected”. For the same molecule, the “reduction of cell death” value in series [4] (10 micromolar compound) was “more than 50%”. In addition, in series [5], the solubility was over 300 µM.

Values taken from US20110184018A1, “METHOD FOR TREATING PERIPHERAL NEUROPATHIC PAIN” (LOHOCLA RESEARCH CORPORATION, priority 2005, published 2011).
